Data taken from patent US10550105B2 (Ribon Therapeutics Inc., priority 2018, dated 2020).

Each molecule was assayed against PARP7 (Homo sapiens (Human), UniProt Q7Z3E1) (assay: Enzymatic assay for inhibition of PARP7: TR-FRET displacement of biotinylated Probe A from the TIPARP active site). Conditions: Table A-1.
Sequence of PARP7 (Q7Z3E1 whole entry): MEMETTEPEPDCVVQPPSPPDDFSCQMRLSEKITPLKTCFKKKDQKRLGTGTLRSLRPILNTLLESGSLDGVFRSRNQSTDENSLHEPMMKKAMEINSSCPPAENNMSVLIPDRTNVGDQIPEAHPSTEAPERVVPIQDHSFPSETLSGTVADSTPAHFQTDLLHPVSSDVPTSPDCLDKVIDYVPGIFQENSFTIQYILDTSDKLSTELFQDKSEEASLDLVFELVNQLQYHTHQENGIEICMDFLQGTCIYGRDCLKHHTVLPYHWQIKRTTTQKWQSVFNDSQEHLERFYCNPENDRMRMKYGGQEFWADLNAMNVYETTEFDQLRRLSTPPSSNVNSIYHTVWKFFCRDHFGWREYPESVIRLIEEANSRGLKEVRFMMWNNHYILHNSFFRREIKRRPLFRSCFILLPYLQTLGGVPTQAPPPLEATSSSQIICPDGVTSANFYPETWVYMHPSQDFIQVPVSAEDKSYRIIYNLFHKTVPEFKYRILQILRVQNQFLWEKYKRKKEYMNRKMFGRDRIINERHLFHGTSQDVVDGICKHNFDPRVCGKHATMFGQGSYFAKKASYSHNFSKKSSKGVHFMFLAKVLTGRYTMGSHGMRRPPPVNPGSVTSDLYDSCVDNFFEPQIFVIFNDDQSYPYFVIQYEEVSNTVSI
Format: binding
In short: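 Displacement of biotinylated Probe A from TIPARP was measured as the 665/615 nm time-resolved FRET ratio (excitation 320 nm, 90 μs delay) after a further 30 min at 25 °C. Inhibition across compound concentrations was fitted by dose-response regression, with the Hill slope free or fixed at 1 (3-parameter fit).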
In the case of `C[C@H](COCCC(=O)N1CCN(c2ncc(C(F)(F)F)cn2)CC1)Oc1cn[nH]c(=O)c1C(F)(F)F` (single isomer, unassigned) [Example 544 Isomer B], the IC50 is reported as 100 to 1000 nM. In the case of `C[C@@H](COCCC(=O)N1CCN(c2ccc(C(F)(F)F)cn2)CC1)Oc1cn[nH]c(=O)c1C(F)(F)F` [Example 584, 5-[[(2S)-1-(3-oxo-3-[4-[5-(trifluoromethyl)pyridin-2-yl]piperazin-1-yl]propoxy)propan-2-yl]oxy]-4-(trifluoromethyl)-2,3-dihydropyridazin-3-one], the IC50 is reported as < 100 nM. Work on `C[C@@H](COCCC(=O)N1CCC(Nc2ncc(C(F)(F)F)cn2)C1)Nc1cn[nH]c(=O)c1C(F)(F)F` (stereo partly drawn) [Example 710, 5-(((2S)-1-(3-Oxo-3-(3-((5-(trifluoromethyl)pyrimidin-2-yl)amino)pyrrolidin-1-yl)propoxy)propan-2-yl)amino)-4-(trifluoromethyl)pyridazin-3(2H)-one] yielded an IC50 of 100 to 1000 nM. Molecule `O=c1[nH]ncc(N2Cc3ccc(OCCN4CCOCC4)nc3C2)c1C(F)(F)F` [Example 316, 5-(2-(2-Morpholinoethoxy)-5,7-dihydro-6H-pyrrolo[3,4-b]pyridin-6-yl)-4-(trifluoromethyl)pyridazin-3(2H)-one] has an IC50 of 100 to 1000 nM. With `C[C@@H](COCCC(=O)N1CCN(c2ccc(C#N)cn2)CC1)Nc1cn[nH]c(=O)c1Br` [Example 600, 6-(4-[3-[(2S)-2-[(5-bromo-6-oxo-1,6-dihydropyridazin-4-yl)amino]propoxy]propanoyl]piperazin-1-yl)pyridine-3-carbonitrile] the IC50 was < 100 nM. In the case of `N#Cc1ccc(N2CCN(C(=O)c3ccc(OCc4cccc5c4CN(c4cn[nH]c(=O)c4C(F)(F)F)C5)cc3)CC2)nc1` [Example 400], the IC50 is reported as < 100 nM. With `N#Cc1ccc(N2CCN(C(=O)c3cc(OCC4c5ccccc5CN4c4cn[nH]c(=O)c4C(F)(F)F)cnc3F)CC2)nc1` (centres unmarked) [Example 61, 6-(4-[[2-fluoro-5-([2-[6-oxo-5-(trifluoromethyl)-1,6-dihydropyridazin-4-yl]-2,3-dihydro-1H-isoindol-1-yl]methoxy)pyridin-3-yl]carbonyl]piperazin-1-yl)pyridine-3-carbonitrile] the IC50 was < 100 nM. For `O=C(C[C@H]1CC[C@H]([C@@H]2CCCN2c2cn[nH]c(=O)c2C(F)(F)F)O1)N1CCN(c2ncc(C(F)(F)F)cn2)CC1` [Example 149D, 5-[(2S)-2-[(2R,5R)-5-(2-oxo-2-[4-[5-(trifluoromethyl)pyrimidin-2-yl]piperazin-1-yl]ethyl)oxolan-2-yl]pyrrolidin-1-yl]-4-(trifluoromethyl)-2,3-dihydropyridazin-3-one], the IC50 was < 100 nM. `CC(CC(=O)N1CCN(c2ccc(C#N)cn2)CC1)OC[C@@H](C)Oc1cn[nH]c(=O)c1C(F)(F)F` (stereo partly drawn) [Example 569, 6-(4-[3-[(2R)-2-[[6-Oxo-5-(trifluoromethyl)-1,6-dihydropyridazin-4-yl]oxy]propoxy]butanoyl]piperazin-1-yl)pyridine-3-carbonitrile] showed an IC50 of 100 to 1000 nM. Work on `COC[C@H](COCCC(=O)N1CCN(c2ncc(Cl)cn2)CC1)Oc1cn[nH]c(=O)c1C(F)(F)F` (single isomer, unassigned) yielded an IC50 of 100 to 1000 nM. With `C[C@@H](COCCC(=O)N1CCN(c2ccc(C(F)(F)F)cn2)CC1)Nc1cn[nH]c(=O)c1C(F)(F)F` [Example 564, 5-[[(2S)-1-(3-Oxo-3-[4-[5-(trifluoromethyl)pyridin-2-yl]piperazin-1-yl]propoxy)propan-2-yl]amino]-4-(trifluoromethyl)-2,3-dihydropyridazin-3-one] the IC50 was < 100 nM. `O=C(c1cccc(OCC2c3ccccc3CN2c2cn[nH]c(=O)c2C(F)(F)F)c1)N1CCNCC1` (centres unmarked) [Example 363, 5-(1-((3-(Piperazine-1-carbonyl)phenoxy)methyl)isoindolin-2-yl)-4-(trifluoromethyl)pyridazin-3(2H)-one] was tested, and the IC50 was ≥ 1000 nM. `N#Cc1ccc(N2CCN(C(=O)C/C=C\OC[C@@H]3CCCN3c3cn[nH]c(=O)c3C(F)(F)F)CC2)nc1` (single isomer, unassigned) [Example 96 Isomer A] was tested, and the IC50 was < 100 nM. `O=C(C[C@H]1CC[C@H](COc2cn[nH]c(=O)c2C(F)(F)F)O1)N1CCN(c2ccc(C(F)(F)F)cn2)CC1` (single isomer, unassigned) [Example 545 Isomer C] was tested, and the IC50 was < 100 nM. `O=C(C[C@@H]1CC[C@@H](COc2cn[nH]c(=O)c2C(F)(F)F)O1)N1CCN(c2ncc(C(F)(F)F)cn2)CC1` (single isomer, unassigned) [Example 574 Isomer A] gave an IC50 of 100 to 1000 nM. In the case of `O=C(c1cccc(OC[C@H]2c3ccccc3CN2c2cn[nH]c(=O)c2C(F)(F)F)c1)N1CCN(c2ccccn2)CC1` [Example 350, (R)-5-(1-((3-(4-(Pyridin-2-yl)piperazine-1-carbonyl)phenoxy)methyl)isoindolin-2-yl)-4-(trifluoromethyl)pyridazin-3(2H)-one], the IC50 is reported as 100 to 1000 nM. In the case of `O=C(c1cncc(OC[C@H]2c3ccccc3CN2c2cn[nH]c(=O)c2C(F)(F)F)c1)N1CCN(c2ncc(C(F)(F)F)cn2)CC1` [Example 393, (R)-4-(Trifluoromethyl)-5-(1-(((5-(4-(5-(trifluoromethyl)pyrimidin-2-yl)piperazine-1-carbonyl)pyridin-3-yl)oxy)methyl)isoindolin-2-yl)pyridazin-3(2H)-one], the IC50 is reported as 100 to 1000 nM. `N#Cc1ccc(N2CCC3(CC2)CN(C(=O)CCOC[C@@H]2CCCN2c2cn[nH]c(=O)c2C(F)(F)F)C3)nc1` [Example 105, 6-[2-(3-[[(2S)-1-[6-oxo-5-(trifluoromethyl)-1,6-dihydropyridazin-4-yl]pyrrolidin-2-yl]methoxy]propanoyl)-2,7-diazaspiro[3.5]nonan-7-yl]pyridine-3-carbonitrile] was tested, and the IC50 was 100 to 1000 nM. For `O=C(C[C@@H]1CC[C@H]([C@@H]2CCCN2c2cn[nH]c(=O)c2C(F)(F)F)O1)N1CCN(c2ncc(C(F)(F)F)cn2)CC1` [Example 149C, 5-[(2S)-2-[(2R,5S)-5-(2-oxo-2-[4-[5-(trifluoromethyl)pyrimidin-2-yl]piperazin-1-yl]ethyl)oxolan-2-yl]pyrrolidin-1-yl]-4-(trifluoromethyl)-2,3-dihydropyridazin-3-one], the IC50 was < 100 nM. `N#Cc1ccc(N2CCN(C(=O)CCOCC3CCCCN3c3cn[nH]c(=O)c3C(F)(F)F)CC2)nc1` (centres unmarked) [Example 130, 6-[4-[3-([1-[6-oxo-5-(trifluoromethyl)-1,6-dihydropyridazin-4-yl]piperidin-2-yl]methoxy)propanoyl]piperazin-1-yl]pyridine-3-carbonitrile] gave an IC50 of 100 to 1000 nM. `CN(Cc1ccncc1)Cc1cccc2c1CN(c1cn[nH]c(=O)c1C(F)(F)F)C2` [Example 328, 5-(4-((Methyl(pyridin-4-ylmethyl)amino)methyl)isoindolin-2-yl)-4-(trifluoromethyl)pyridazin-3(2H)-one] was tested, and the IC50 was < 100 nM. With `O=C(CCNC[C@@H]1c2ccccc2CN1c1cn[nH]c(=O)c1C(F)(F)F)N1CCN(c2ncc(C(F)(F)F)cn2)CC1` [Example 433, (S)-5-(1-(((3-Oxo-3-(4-(5-(trifluoromethyl)pyrimidin-2-yl)piperazin-1-yl)propyl)amino)methyl)isoindolin-2-yl)-4-(trifluoromethyl)pyridazin-3(2H)-one] the IC50 was < 100 nM. `O=c1[nH]ncc(N2Cc3ccc(F)cc3C2)c1Cl` [Example 59, 4-Chloro-5-(5-fluoro-2,3-dihydro-1H-isoindol-2-yl)-2,3-dihydropyridazin-3-one] was tested, and the IC50 was < 100 nM. In the case of `O=c1[nH]ncc(N2Cc3cccc(OCCN4CCOCC4)c3C2)c1C(F)(F)F` [Example 214, 5-(4-(2-Morpholinoethoxy)isoindolin-2-yl)-4-(trifluoromethyl)pyridazin-3(2H)-one], the IC50 is reported as < 100 nM. In the case of `N#Cc1cccnc1N1CCN(C(=O)CCOC[C@@H]2CCCN2c2cn[nH]c(=O)c2C(F)(F)F)CC1` [Example 463, (S)-2-(4-(3-((1-(6-Oxo-5-(trifluoromethyl)-1,6-dihydropyridazin-4-yl)pyrrolidin-2-yl)methoxy)propanoyl)piperazin-1-yl)nicotinonitrile], the IC50 is reported as < 100 nM. For `N#Cc1ccc(N2CCN(C(=O)[C@H]3CCC[C@H](OC[C@@H]4CCCN4c4cn[nH]c(=O)c4C(F)(F)F)C3)CC2)nc1` (single isomer, unassigned) [Example 57 Isomer A], the IC50 was 100 to 1000 nM. `N#Cc1ccc(N2CCN(C(=O)CCOC[C@@H]3C[C@H](C(F)(F)F)CN3c3cn[nH]c(=O)c3C(F)(F)F)CC2)nc1` [Example 133, 6-[4-(3-[[(2S,4S)-1-[6-oxo-5-(trifluoromethyl)-1,6-dihydropyridazin-4-yl]-4-(trifluoromethyl)pyrrolidin-2-yl]methoxy]propanoyl)piperazin-1-yl]pyridine-3-carbonitrile] was tested, and the IC50 was < 100 nM. `O=C(C[C@H]1CC[C@@H](COc2cn[nH]c(=O)c2Cl)O1)N1CCN(c2ncc(C(F)(F)F)cn2)CC1` [Example 575 Isomer C, 4-Chloro-5-(((2S,5R)-5-(2-oxo-2-(4-(5-(trifluoromethyl)pyrimidin-2-yl)piperazin-1-yl)ethyl)-tetrahydrofuran-2-yl)methoxy)pyridazin-3(2H)-one] was tested, and the IC50 was 100 to 1000 nM. In the case of `CC(=O)N1CCC(Oc2cc3c(cc2F)CN(c2cn[nH]c(=O)c2C(F)(F)F)C3)C1` (centres unmarked) [Example 54, 5-(5-(1-acetylpyrrolidin-3-yloxy)-6-fluoroisoindolin-2-yl)-4-(trifluoromethyl)pyridazin-3(2H)-one], the IC50 is reported as < 100 nM. For `N#Cc1ccc(N2CCN(C(=O)C3CCC(OCC4CCN(c5cn[nH]c(=O)c5C(F)(F)F)C4)CC3)CC2)nc1` (centres unmarked) [Example 97, 6-[4-[4-([1-[6-oxo-5-(trifluoromethyl)-1,6-dihydropyridazin-4-yl]pyrrolidin-3-yl]methoxy)cyclohexanecarbonyl]piperazin-1-yl]pyridine-3-carbonitrile], the IC50 was < 100 nM. For `N#Cc1ccc(N2CCN(C(=O)CCCOCCOc3cn[nH]c(=O)c3C(F)(F)F)CC2)nc1` [Example 525, 6-[4-[4-(2-[[6-Oxo-5-(trifluoromethyl)-1,6-dihydropyridazin-4-yl]oxy]ethoxy)butanoyl]piperazin-1-yl]pyridine-3-carbonitrile], the IC50 was < 100 nM. In the case of `O=c1[nH]ncc(N2Cc3cccc(OCCO)c3C2)c1C(F)(F)F` [Example 181, 5-(4-(2-Hydroxyethoxy)isoindolin-2-yl)-4-(trifluoromethyl)pyridazin-3(2H)-one], the IC50 is reported as < 100 nM.
